Reference: article PMC7501296, “Rapid and direct control of target protein levels with VHL-recruiting dTAG molecules” (Nature Communications, 2020)
Where “and” joins values, the source holds several entries; their conditions need not be identical. Equal entries are not always repeated.

What was measured:
FKBP12^F36V-Nluc = target: T1, FKBP12^F36V-Nluc (Homo sapiens, UniProt P62942, F37V); assay: FKBP12F36V-Nluc dual luciferase assay (293FT); format: cell-based; settings: 293FT, 24 h
T1 construct: expressed in transfected cells; host or cells: 293FT
T1 sequence (P62942 2-108 F37V limits assumed): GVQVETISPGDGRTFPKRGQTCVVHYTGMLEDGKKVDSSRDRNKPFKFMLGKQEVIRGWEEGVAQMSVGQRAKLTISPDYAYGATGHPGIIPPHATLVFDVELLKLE
Summary of the method: (§1)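 293FT cells expressing FKBP12^WT-Nluc or FKBP12^F36V-Nluc with Fluc were treated with compound for 24 h at 37 °C. Fluc, then Nluc, luminescence was read with Dual-Glo reagents. Values are DMSO-normalised Nluc/Fluc ratios.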

[1] = tested on: PATU-8902 LACZ-FKBP12^F36V clone; assay: Antiproliferation, PATU-8902 LACZ-FKBP12F36V clone, 2D-monolayer (CellTiter-Glo); format: cell-based
Summary of the method: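 Viability of cells grown as 2D-adherent monolayers was determined with the CellTiter-Glo luminescent reagent (Promega). Luminescence signals were read on either an Envision 2104 plate reader (PerkinElmer) or a Fluostar Omega Reader (BMG Labtech), and the resulting data were processed and analyzed in GraphPad PRISM v8 software.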

FKBP12^WT-Nluc = target: T2, FKBP12^WT-Nluc (Homo sapiens, UniProt P62942); assay: FKBP12WT-Nluc dual luciferase assay (293FT); format: cell-based; settings: 293FT, 24 h
T2 construct: expressed in transfected cells; host or cells: 293FT
T2 sequence (P62942 2-108 limits assumed): as the sequence (P62942 2-108 F37V limits assumed) above, with V36F counted along it
Summary of the method: as §1

[2] = tested on: PATU-8902 LACZ-FKBP12^F36V clone; assay: Quantitative MS proteomics, PATU-8902 LACZ-FKBP12F36V clone; format: cell-based, Homo sapiens; settings: for TMT intensity per TMT channel: PATU-8902 LACZ-FKBP12F36V samples, biological replicates
Method: Cell pellets from PATU-8902 and EWS502 cells were lysed using 8 M urea, 200 mM 4-(2-hydroxyethyl)-1-piperazinepropanesulfonic acid (EPPS) at pH 8.5 with protease inhibitors. Samples were further homogenized and DNA was sheered via sonication using a probe sonicator (20 × 0.5 s pulses; level 3). Total protein was determined using a BCA assay and stored at −80 °C until future use. A total of 100 µg of protein was aliquoted for each condition and TMT channel for further downstream processing. Protein extracts were reduced using 10 mM dithiothreitol (DTT) for 30 min at room temperature. Next, samples were alkylated with 20 mM iodoacetamide for 45 min in the dark at room temperature. To facilitate the removal of incompatible reagents, proteins were precipitated using chloroform methanol. Briefly, to 100 µL of each sample, 400 µL of methanol was added, followed by 100 µL of chloroform with thorough vortexing. Next, 300 µL of HPLC grade water was added and samples were vortexed thoroughly. Each sample was centrifuged at 14,000 × g for 5 min at room temperature. The upper aqueous layer was removed and the protein pellet was washed twice with methanol and centrifuged at 14,000 × g for 5 min at room temperature. Protein pellets were resolubilized in 200 mM EPPS buffer and digested overnight with Lys-C (1:100, enzyme:protein ratio) at room temperature. The next day, trypsin (1:100 ratio) was added and incubated at 37 °C for an additional 6 h in a ThermoMixer set to 1000 RPM.
To each digested sample, 30% anhydrous acetonitrile was added and 100 µg of peptides were labeled using 200 µg of TMT reagent (TMT1-TMT11). Following labeling, a 5% hydroxylamine solution was used to quench excess TMT reagent. To equalize protein loading, a ratio check was performed by pooling 2 µg of each TMT-labeled sample. Samples were pooled and desalted using in-house packed C18 StageTips and analyzed by LC-MS/MS. Normalization factors were calculated from this label check, samples were mixed 1:1 across all TMT channels and desalted using a 100 mg Sep-Pak solid phase extraction cartridge. Eluted pooled peptides were further fractionated with basic-pH reverse-phase (bRP) HPLC using an Agilent 300 extend C18 column and collected into a 96 deep-well plate. Samples were consolidated into 24 fractions, and 12 nonadjacent fraction were desalted using StageTips prior to analyses using LC-MS/MS[35]–[37].
All mass spectrometry data was acquired using an Orbitrap Fusion mass spectrometer in-line with a Proxeon NanoLC-1000 UHPLC system. Peptides were separated using an in-house 100 µm capillary column packed with 40 cm of Accucore 150 resin (2.6 µm, 150 Å) (Thermo Fisher Scientific) using a 180 min LC gradient per fraction. Eluted peptides were acquired using synchronous precursor selection (SPS-MS3) method for TMT quantification. Briefly, MS1 spectra were acquired at 120 K resolving power with a maximum of 50 ms in the Orbitrap. MS2 spectra were acquired by selecting the top ten most abundant features via collisional induced dissociation (CID) in the ion trap using an automatic gain control (AGC) of 15 K, quadrupole isolation width of 0.7 m/z and a maximum ion time of 100 ms. For MS3 acquisition, a synchronous precursor selection of ten fragment ions was acquired with an AGC of 150 K for 150 ms and a normalized collision energy of 55.
All acquired raw data were converted to mzXML using Raw File Reader (v3.0.77). Spectra were processed using Comet (2019.01.5)[39]–[41], search results were filtered using the LDA function MASS Package in R, and data were processed using an in-house informatics pipeline[42]–[44]. Custom code was not developed in this study. Briefly, peptide spectral libraries were first filtered to a peptide false discovery rate (FDR) of less than 1% using linear discriminant analysis employing a target decoy strategy. […]

[3] = log10[compound] (M) -5.69897, replicate values
[4] = log10[compound] (M) -6.19897, replicate values
[5] = log10[compound] (M) -6.69897, replicate values
[6] = log10[compound] (M) -7.19897, replicate values
[7] = log10[compound] (M) -7.69897, replicate values
[8] = log10[compound] (M) -8.19897, replicate values
[9] = log10[compound] (M) -8.69897, replicate values
[10] = log10[compound] (M) -9.19897, replicate values
[11] = log10[compound] (M) -9.69897, replicate values
[12] = log10[compound] (M) -10.199, replicate values
[13] = protein LACZ-FKBP12F36V, 500 nM, 4 h

Structure (SMILES) | Degradation of FKBP12F36V-Nluc (in words) (FKBP12^F36V-Nluc) | DMSO-normalized antiproliferation [1, 3] | DMSO-normalized antiproliferation [1, 4] | DMSO-normalized antiproliferation [1, 5] | DMSO-normalized antiproliferation [1, 6] | DMSO-normalized antiproliferation [1, 7] | DMSO-normalized antiproliferation [1, 8] | DMSO-normalized antiproliferation [1, 9] | DMSO-normalized antiproliferation [1, 10] | DMSO-normalized antiproliferation [1, 11] | DMSO-normalized antiproliferation [1, 12] | Effect on FKBP12WT-Nluc (in words) (FKBP12^WT-Nluc) | TMT intensity per TMT channel ([2]; protein CDK12) | TMT intensity per TMT channel ([2]; protein INCENP) | TMT intensity per TMT channel ([2]; protein IRS2) | TMT intensity per TMT channel ([2]; protein SLC12A2) | TMT intensity per TMT channel ([2]; protein SLC15A4) | other results
CCC(C(=O)N1CCCCC1C(=O)OC(CCc1ccc(OC)c(OC)c1)c1ccccc1OCC(=O)NCCCCCCC(=O)NC(C(=O)N1CC(O)CC1C(=O)NC(C)c1ccc(-c2scnc2C)cc1)C(C)(C)C)c1cc(OC)c(OC)c(OC)c1 (stereo not drawn) [dTAG^V-1-NEG] | no activity | 11.5867 and 14.0973 and 18.4019 and 18.5068 | 63.5123 and 73.6517 and 63.5598 and 74.3207 | 93.1863 and 113.355 and 96.7633 and 104.117 | 100.081 and 106.556 and 105.951 and 130.27 | 138.495 and 100.848 and 147.738 and 83.6486 | 143.617 and 87.8737 and 136.886 and 159.708 | 153.483 and 88.4456 and 121.366 and 127.155 | 128.036 and 98.5375 and 110.326 and 91.7687 | 126.211 and 97.7702 and 97.5063 and 90.8491 | 118.887 and 87.4707 and 131.584 and 99.1889 | no activity | 2630.52 and 3108.44 and 2718.26 | 2713.73 and 2977.66 and 2766.34 | 358.215 and 458.696 and 391.289 | 1702.64 and 1563.99 and 1824.49 | 247.423 and 199.538 and 213.085 | log2 (Fold change) compared to DMSO ([2]; protein CRY1, 500 nM, 4 h): -0.9118; log2 (Fold change) compared to DMSO ([2]; protein LITAF, 500 nM, 4 h): -0.2196; log2 (Fold change) compared to DMSO ([2]; protein MPRIP, 500 nM, 4 h): -0.5841; log2 (Fold change) compared to DMSO ([2]; protein RIOX1, 500 nM, 4 h): 0.1069; log2 (Fold change) compared to DMSO ([2]; protein SGTA, 500 nM, 4 h): 0.1473
CC[C@H](C(=O)N1CCCC[C@H]1C(=O)O[C@H](CCc1ccc(OC)c(OC)c1)c1ccccc1OCC(=O)NCCCCCCC(=O)N[C@H](C(=O)N1C[C@H](O)C[C@H]1C(=O)N[C@@H](C)c1ccc(-c2scnc2C)cc1)C(C)(C)C)c1cc(OC)c(OC)c(OC)c1 [dTAG^V-1] | potent degradation | 35.4292 and 29.4521 and 35.0517 and 31.6104 | 87.2455 and 81.8203 and 77.0995 and 64.2664 | 124.825 and 81.8259 and 133.331 and 119.877 | 118.009 and 93.8067 and 130.572 and 123.376 | 133.195 and 132.373 and 134.672 and 120.383 | 136.88 and 106.56 and 99.7166 and 163.283 | 148.548 and 115.202 and 143.359 and 119.836 | 116.491 and 96.4785 and 115.962 and 80.4138 | 139.57 and 103.845 and 96.4961 and 122.632 | 133.817 and 113.621 and 96.1958 and 88.4566 | no effects | 2772.29 and 2668.65 and 2839.83 | 2143.95 and 2638.07 and 2856.47 | 352.3 and 336.062 and 338.748 | 1789.71 and 1681.54 and 1827.76 | 231.802 and 205.301 and 235.055 | DMSO-normalized antiproliferation ([1]; log10[compound] (M) -6.69897): 102.668 and 99.5089 and 89.7578 and 106.231; DMSO-normalized antiproliferation ([1]; log10[compound] (M) -7.19897): 90.1193 and 111.795 and 91.2446 and 98.3924; DMSO-normalized antiproliferation ([1]; log10[compound] (M) -7.69897): 112.909 and 117.897 and 108.192 and 99.266; DMSO-normalized antiproliferation ([1]; log10[compound] (M) -8.19897): 101.415 and 100.309 and 97.138 and 102.461; DMSO-normalized antiproliferation ([1]; log10[compound] (M) -8.69897): 103.413 and 90.0724 and 92.9073 and 97.9489; Protein levels of VHL or VHL-regulated targets ([2]; 500 nM, 4 h): No significant changes; log2 (Fold change) compared to DMSO ([2]; protein BCAR3, 500 nM, 4 h): 0.1578; log2 (Fold change) compared to DMSO ([2]; protein CYBA, 500 nM, 4 h): -0.2931; Fold change < -2 [2, 13]: + (Fold change in which '+' refers to fold change < -2.); log2 (Fold change) compared to DMSO [2, 13]: -1.082; log2 (Fold change) compared to DMSO ([2]; protein RAB18, 500 nM, 4 h): -0.08378; log2 (Fold change) compared to DMSO ([2]; protein SEPTIN10, 500 nM, 4 h): 0.1418
